Ratio, MIC and MBC data for two molecules are collected here from ChEMBL document CHEMBL4813981, “Synthesis and in vitro antibacterial activity of new aminothiazole-oximepiperidone cephalosporins” (2021).

In brackets after ≈: the same amount, converted by molar mass.

For test [1], the system named is Klebsiella pneumoniae. Description: Ratio of MBC to MIC for Klebsiella pneumoniae ATCC BAA-1705 assessed as reduction in bacterial growth. Format: functional.
Test [2] concerns Klebsiella aerogenes. As to the kind of experiment: Ratio of MBC to MIC for Enterobacter aerogenes 15-4 assessed as reduction in bacterial growth. The test is classed as functional.
In test [3] the test system is Klebsiella pneumoniae. Description: Ratio of MBC to MIC for ESBLs positive Carbapenem-sensitive Klebsiella pneumoniae 17-12 assessed as reduction in bacterial growth. Format: functional.
Test [4] relates to Klebsiella pneumoniae. As to the kind of experiment: Antibacterial activity against ESBLs positive Carbapenem-sensitive Klebsiella pneumoniae 17-13 assessed as reduction in bacterial growth in the presence of Avibactam. The test is classed as functional.
Test [5] has as its system Enterobacter cloacae. Description: Ratio of MBC to MIC for Enterobacter cloacae 17-9 assessed as reduction in bacterial growth. The test is classed as functional.
The test system of test [6] is Klebsiella pneumoniae. Description: Ratio of MBC to MIC for ESBLs negative Carbapenem-sensitive Klebsiella pneumoniae 17-16 assessed as reduction in bacterial growth in the presence of Avibactam. The test is classed as functional.
The test system of test [7] is Escherichia coli. Description: Antibacterial activity against ESBLs negative Carbapenem-sensitive Escherichia coli 17-16 assessed as reduction in bacterial growth in the presence of Avibactam. The test is classed as functional.
In test [8] the test system is Escherichia coli. Description: Ratio of MBC to MIC for ESBLs negative carbapenem-negative Escherichia coli 17-20 assessed as reduction in bacterial growth in the presence of Avibactam. Format: functional.
Test [9] has as its system Escherichia coli. Description: Antibacterial activity against ESBLs negative Carbapenem-sensitive Escherichia coli 17-20 assessed as reduction in bacterial growth in the presence of Avibactam. Format: functional.
Test [10] has as its system Klebsiella pneumoniae. Description: Ratio of MBC to MIC for Carbapenem- resistant Klebsiella pneumoniae KR 15-6 assessed as reduction in bacterial growth. Format: functional.
In test [11] the test system is Klebsiella pneumoniae. As to the kind of experiment: Ratio of MBC to MIC for ESBLs positive Carbapenem-sensitive Klebsiella pneumoniae 17-6 assessed as reduction in bacterial growth. The test is classed as functional.
Test [12] concerns Acinetobacter baumannii. Description: Antibacterial activity against Carbapenem- resistant Acinetobacter baumannii 17-3 assessed as reduction in bacterial growth.
For test [13], the system named is Escherichia coli. Description: Antibacterial activity against ESBLs positive Carbapenem-sensitive Escherichia coli 17-14 assessed as reduction in bacterial growth in the presence of Avibactam. Format: functional.
Test [14] concerns Klebsiella pneumoniae. Description: Ratio of MBC to MIC for ESBLs positive Carbapenem-sensitive Klebsiella pneumoniae 17-12 assessed as reduction in bacterial growth in the presence of Avibactam. The test is classed as functional.
Test [15] has as its system Pseudomonas aeruginosa. Description: Antibacterial activity against Carbapenem- sensitive Pseudomonas aeruginosa 17-30 assessed as reduction in bacterial growth in the presence of Avibactam. The test is classed as functional.
The subject of test [16] is Pseudomonas aeruginosa. Description: Ratio of MBC to MIC for carbapenem-sensitive Pseudomonas aeruginosa 17-9 assessed as reduction in bacterial growth in the presence of Avibactam. The test is classed as functional.
In test [17] the test system is Pseudomonas aeruginosa. As to the kind of experiment: Ratio of MBC to MIC for carbapenem-sensitive Pseudomonas aeruginosa 17-26 assessed as reduction in bacterial growth in the presence of Avibactam. The test is classed as functional.
Test [18] concerns Klebsiella aerogenes. Description: Ratio of MBC to MIC for Enterobacter aerogenes 17-4 assessed as reduction in bacterial growth. Format: functional.
Test [19] relates to Enterobacter cloacae. As to the kind of experiment: Antibacterial activity against Enterobacter cloacae 17-8 assessed as reduction in bacterial growth.
In test [20] the test system is Escherichia coli. As to the kind of experiment: Ratio of MBC to MIC for ESBLs positive Carbapenem-sensitive Escherichia coli 17-10 assessed as reduction in bacterial growth. Format: functional.
Test [21] concerns Klebsiella pneumoniae. Description: Ratio of MBC to MIC for Carbapenem-resistant Klebsiella pneumoniae KR 15-8 assessed as reduction in bacterial growth in the presence of Avibactam. Format: functional.
The test system of test [22] is Klebsiella pneumoniae. As to the kind of experiment: Ratio of MBC to MIC for ESBLs positive Carbapenem-sensitive Klebsiella pneumoniae 17-2 assessed as reduction in bacterial growth. Format: functional.
The subject of test [23] is Escherichia coli. Description: Antibacterial activity against ESBLs positive Carbapenem-sensitive Escherichia coli 17-2 assessed as reduction in bacterial growth in the presence of Avibactam. Format: functional.
The test system of test [24] is Klebsiella pneumoniae. As to the kind of experiment: Antibacterial activity against ESBLs positive Carbapenem-sensitive Klebsiella pneumoniae 17-10 assessed as reduction in bacterial growth in the presence of Avibactam. The test is classed as functional.
For test [25], the system named is Klebsiella pneumoniae. As to the kind of experiment: Antibacterial activity against ESBLs negative Carbapenem-sensitive Klebsiella pneumoniae 17-19 assessed as reduction in bacterial growth in the presence of Avibactam. The test is classed as functional.
Test [26] deals with Pseudomonas aeruginosa. Description: Ratio of MBC to MIC for carbapenem-sensitive Pseudomonas aeruginosa 17-26 assessed as reduction in bacterial growth. The test is classed as functional.
The subject of test [27] is Escherichia coli. As to the kind of experiment: Antibacterial activity against ESBLs negative Carbapenem-sensitive Escherichia coli 17-19 assessed as reduction in bacterial growth in the presence of Avibactam. The test is classed as functional.
Test [28] has as its system Pseudomonas aeruginosa. Description: Ratio of MBC to MIC for carbapenem-sensitive Pseudomonas aeruginosa 17-7 assessed as reduction in bacterial growth. Format: functional.
The subject of test [29] is Acinetobacter baumannii. Description: Antibacterial activity against Carbapenem- resistant Acinetobacter baumannii 17-11 assessed as reduction in bacterial growth.
The test system of test [30] is Escherichia coli. Description: Ratio of MBC to MIC for ESBLs positive carbapenem-negative Escherichia coli 17-3 assessed as reduction in bacterial growth in the presence of Avibactam. Format: functional.
Test [31] deals with Enterobacter cloacae. Description: Ratio of MBC to MIC for Enterobacter cloacae 17-3 assessed as reduction in bacterial growth in the presence of Avibactam. Format: functional.
The test system of test [32] is Enterobacter cloacae. As to the kind of experiment: Antibacterial activity against Enterobacter cloacae 17-3 assessed as reduction in bacterial growth.
Test [33] deals with Klebsiella aerogenes. As to the kind of experiment: Antibacterial activity against Enterobacter aerogenes 15-6 assessed as reduction in bacterial growth in the presence of Avibactam. Format: functional.
For test [34], the system named is Enterobacter cloacae. As to the kind of experiment: Ratio of MBC to MIC for Enterobacter cloacae 17-2 assessed as reduction in bacterial growth in the presence of Avibactam. The test is classed as functional.
The test system of test [35] is Pseudomonas aeruginosa. Description: Ratio of MBC to MIC for Pseudomonas aeruginosa ATCC 27853 assessed as reduction in bacterial growth. The test is classed as functional.
The subject of test [36] is Klebsiella aerogenes. Description: Ratio of MBC to MIC for Enterobacter aerogenes 15-3 assessed as reduction in bacterial growth in the presence of Avibactam. Format: functional.
Test [37] relates to Acinetobacter baumannii. Description: Ratio of MBC to MIC for Acinetobacter baumannii NCTC 13304 assessed as reduction in bacterial growth in the presence of Avibactam. The test is classed as functional.
Test [38] deals with Enterobacter cloacae. As to the kind of experiment: Bactericidal activity against Enterobacter cloacae 17-9 assessed as reduction in bacterial growth. The test is classed as functional.
Test [39] has as its system Klebsiella pneumoniae. Description: Antibacterial activity against ESBLs negative Carbapenem-sensitive Klebsiella pneumoniae 17-17 assessed as reduction in bacterial growth.
The test system of test [40] is Enterobacter cloacae. As to the kind of experiment: Bactericidal activity against Enterobacter cloacae 17-8 assessed as reduction in bacterial growth. Format: functional.
In test [41] the test system is Escherichia coli. Description: Bactericidal activity against ESBLs positive Carbapenem-sensitive Escherichia coli 17-10 assessed as reduction in bacterial growth. The test is classed as functional.
Test [42] relates to Acinetobacter baumannii. Description: Bactericidal activity against Carbapenem- resistant Acinetobacter baumannii 17-3 assessed as reduction in bacterial growth. Format: functional.

For orientation: MIC means the least concentration at which growth counts as inhibited. Take `Nc1nc(/C(=N/OCc2cc(=O)c(O)cn2O)C(=O)N[C@@H]2C(=O)N3C(C(=O)O)=CCS[C@H]23)cs1`: the Ratio in test [1] is recorded as over 1; in test [2], 1; in test [3], 2; in test [5] it was 1; in test [6] it was 1; in test [8], over 16. The Ratio in [10] stood at 4; in [11], 2; in test [14], 1; in test [16] it was 2; in [17], 4; in [18], 2. For the same molecule, the Ratio in test [20] is reported as 1; in test [21], 4; in test [22], 1; in [26] it was over 8; in [28] it was 4; in [30] it was 2. The Ratio was determined as 4 in test [31]; 8 in test [34]; 16 in [35]; 1 in test [36]; 1 in test [37]. In addition, the minimum inhibitory concentration (MIC) in test [4] is at most 0.03 µg/mL; in [7] it was 0.5 µg/mL; in test [9] it was 0.06 µg/mL; in test [12], over 64 µg/mL; in [13], 0.25 µg/mL; in [15] it was 0.25 µg/mL. Also, the minimal inhibitory concentration (MIC) in [19] was 16 µg/mL (≈ 31.5 µM); in test [23] it was 0.25 µg/mL; in [24], 1 µg/mL; in test [25] it was at most 0.03 µg/mL; in test [27], 0.5 µg/mL; in test [29], over 64 µg/mL. Besides, the MIC came out at 64 µg/mL (≈ 126 µM) in test [32] and 0.5 µg/mL in test [33].
As a reminder, the MBC is the smallest concentration meeting the test's criterion for killing. In the case of `CC(C)(O/N=C(\C(=O)N[C@@H]1C(=O)N2C(C(=O)[O-])=C(C[n+]3ccccc3)CS[C@H]12)c1csc(N)n1)C(=O)O` [CEFTAZIDIME], the MBC in test [38] is over 4 µg/mL; in [40], 1 µg/mL (≈ 1.83 µM); in [41] it was 16 µg/mL (≈ 29.3 µM); in [42] it was 64 µg/mL (≈ 117 µM). Also, the MIC in [39] was 0.125 µg/mL (≈ 0.229 µM).
